For nine compounds, Activity and IC50 results are on record in ChEMBL document CHEMBL1144218, “Synthesis and biological activity of anticoccidial agents: 5,6-diarylimidazo[2,1-b][1,3]thiazoles” (Bioorg Med Chem Lett, 2008).

By IC50 is commonly meant the midpoint of a concentration-inhibition curve.

For assay [1], the system named is Eimeria mitis. Briefly: Anticoccidial activity against Eimeria mitis infected in poultry bird assessed as reduction of […] burden at 50 ppm, po after 7 days. Format: functional. More on the design: scale not given: the % may be the effect or the level left.
The test system of assay [2] is Eimeria maxima. Briefly: Anticoccidial activity against Eimeria maxima infected in poultry bird assessed as reduction of […] burden at 50 ppm, po after 7 days. Format: functional. More on the design: scale not given: the % may be the effect or the level left.
A short description of assay [3]: Inhibition of Eimeria tenella PKG.
Assay [4] deals with Eimeria tenella. Briefly: Anticoccidial activity against Eimeria tenella infected in poultry bird assessed as reduction of […] burden at 50 ppm, po after 7 days. Format: functional. More on the design: scale not given: the % may be the effect or the level left.
Assay [5] relates to Eimeria acervulina. Put plainly: Anticoccidial activity against Eimeria acervulina infected in poultry bird assessed as reduction of […] burden at 50 ppm, po after 7 days. The class given is functional. More on the design: scale not given: the % may be the effect or the level left.
Assay [6] relates to Eimeria maxima. Briefly: Anticoccidial activity against Eimeria maxima infected in poultry bird assessed as reduction of […] burden at 25 ppm, po after 7 days. Format: functional. More on the design: scale not given: the % may be the effect or the level left.
Assay [7] concerns Eimeria mitis. Put plainly: Anticoccidial activity against Eimeria mitis infected in poultry bird assessed as reduction of […] burden at 12.5 ppm, po after 7 days. More on the design: scale not given: the % may be the effect or the level left. Format: functional.
For assay [8], the system named is Eimeria acervulina. Briefly: Anticoccidial activity against Eimeria acervulina infected in poultry bird assessed as reduction of […] burden at 25 ppm, po after 7 days. More on the design: scale not given: the % may be the effect or the level left. The class given is functional.
Assay [9] concerns Eimeria maxima. Briefly: Anticoccidial activity against Eimeria maxima infected in poultry bird assessed as reduction of […] burden at 6.25 ppm, po after 7 days. Format: functional. More on the design: scale not given: the % may be the effect or the level left.
Assay [10] deals with Eimeria tenella. Put plainly: Anticoccidial activity against Eimeria tenella infected in poultry bird assessed as reduction of […] burden at 6.25 ppm, po after 7 days. The class given is functional. More on the design: scale not given: the % may be the effect or the level left.
Assay [11] has as its system Eimeria maxima. Briefly: Anticoccidial activity against Eimeria maxima infected in poultry bird assessed as reduction of […] burden at 12.5 ppm, po after 7 days. The class given is functional. More on the design: scale not given: the % may be the effect or the level left.
Assay [12] relates to Eimeria acervulina. Briefly: Anticoccidial activity against Eimeria acervulina infected in poultry bird assessed as reduction of […] burden at 6.25 ppm, po after 7 days. The class given is functional. More on the design: scale not given: the % may be the effect or the level left.
The test system of assay [13] is Eimeria tenella. Briefly: Anticoccidial activity against Eimeria tenella infected in poultry bird assessed as reduction of […] burden at 12.5 ppm, po after 7 days. The class given is functional. More on the design: scale not given: the % may be the effect or the level left.
Assay [14] concerns Eimeria mitis. Briefly: Anticoccidial activity against Eimeria mitis infected in poultry bird assessed as reduction of […] burden at 6.25 ppm, po after 7 days. The class given is functional. More on the design: scale not given: the % may be the effect or the level left.
Assay [15] has as its system Eimeria mitis. Put plainly: Anticoccidial activity against Eimeria mitis infected in poultry bird assessed as reduction of […] burden at 25 ppm, po after 7 days. Format: functional. More on the design: scale not given: the % may be the effect or the level left.
Assay [16] deals with Eimeria acervulina. Put plainly: Anticoccidial activity against Eimeria acervulina infected in poultry bird assessed as reduction of […] burden at 12.5 ppm, po after 7 days. More on the design: scale not given: the % may be the effect or the level left. The class given is functional.
In assay [17] the test system is Eimeria tenella. Briefly: Anticoccidial activity against Eimeria tenella infected in poultry bird assessed as reduction of […] burden at 25 ppm, po after 7 days. The class given is functional. More on the design: scale not given: the % may be the effect or the level left.

Consider `CN1CCN(CCc2cn3c(-c4ccncc4)c(-c4ccc(F)cc4)nc3s2)CC1`, for which the Activity is less than 50% in the assay with Eimeria mitis [1], 50% with Eimeria maxima [2], 99% with Eimeria tenella [4] and 80% in the assay with Eimeria acervulina [5]. This compound displayed an IC50 in assay [3] of 2.5 nM.
The corresponding values for `CN1CCN(Cc2cn3c(-c4ccncc4)c(-c4ccc(F)cc4)nc3s2)CC1` are 80%, less than 50%, 99%, 100% and 0.7 nM.
The corresponding values for `CN(C)Cc1cn2c(-c3ccnc(N)n3)c(-c3ccc(F)cc3)nc2s1` are 50%, less than 50%, 99%, 100% and 0.9 nM.
The corresponding values for `CN1CCN(Cc2cn3c(-c4ccncn4)c(-c4ccc(F)cc4)nc3s2)CC1` are 100%, 100%, 100%, 99% and 1.04 nM.
As to `CN1CCN(Cc2cn3c(-c4ccnc(N)n4)c(-c4ccc(F)cc4)nc3s2)CC1`, the Activity with Eimeria maxima [6] is recorded as 100%; with Eimeria mitis [7], less than 50%; with Eimeria acervulina [8], 100%; in the assay on Eimeria maxima [9] it was 100%; in the assay with Eimeria tenella [10] it was 100%; with Eimeria maxima [11], 100%. Further, the Activity is on record as 100% in the assay with Eimeria acervulina [12]; 100% in the assay on Eimeria tenella [13]; 100% in the assay with Eimeria mitis [1]; 100% in the assay on Eimeria maxima [2]; less than 50% in the assay on Eimeria mitis [14]; 100% in the assay on Eimeria mitis [15]. The Activity in the assay on Eimeria acervulina [16], in the assay on Eimeria tenella [17], in the assay on Eimeria tenella [4] and with Eimeria acervulina [5] was 100% each time. The compound also had an IC50 in assay [3] of 0.08 nM.
On to `CN(C)Cc1cn2c(-c3ccncc3)c(-c3ccc(F)cc3)nc2s1`, for which the Activity is listed as less than 50% in the assay on Eimeria mitis [1], less than 50% in the assay with Eimeria maxima [2], 80% with Eimeria tenella [4] and 50% in the assay with Eimeria acervulina [5]. The IC50 in assay [3] was 22 nM.
The compound `CN1CCN(C(=O)c2cn3c(-c4ccncc4)c(-c4ccc(F)cc4)nc3s2)CC1` showed an IC50 in assay [3] of 100 nM.
Consider `CN(C)CCc1cn2c(-c3ccncc3)c(-c3ccc(F)cc3)nc2s1`, for which the Activity with Eimeria mitis [1] is reported as 99%; with Eimeria maxima [2], less than 50%; with Eimeria tenella [4] it was 50%; in the assay on Eimeria acervulina [5], 50%. Also, the IC50 in assay [3] came to 10.1 nM.
Consider `Cc1c(CN2CCN(C)CC2)sc2nc(-c3ccc(F)cc3)c(-c3ccncc3)n12`, for which, in assay [3], the IC50 is more than 100 nM.
